Read-outs that look alike come from different tables or passages of the source. Bounds are passed on as bounds.

In one assay the target is TRKA (G677C) (Homo sapiens, UniProt P04629, G667C). Nature of the assay: Radio-tagged HotSpot kinase assay, TRKA (G677C). Format: biochemical. The following applies: 33P-ATP, 120 min, room temperature.
The next assay addresses ALK (Homo sapiens (Human), UniProt Q9UM73). The assay is described as follows: Radio-tagged HotSpot kinase assay, ALK. Format: biochemical. Particulars: 33P-ATP, 120 min, room temperature.
In the next assay the target is ALK (G1202R) (Homo sapiens (Human), UniProt Q9UM73, G1202R). Nature of the assay: Radio-tagged HotSpot kinase assay, ALK (G1202R). Format: biochemical. The following applies: 33P-ATP, 120 min, room temperature.
Sequence of ALK (G1202R) (Q9UM73 19-1620 G1202R): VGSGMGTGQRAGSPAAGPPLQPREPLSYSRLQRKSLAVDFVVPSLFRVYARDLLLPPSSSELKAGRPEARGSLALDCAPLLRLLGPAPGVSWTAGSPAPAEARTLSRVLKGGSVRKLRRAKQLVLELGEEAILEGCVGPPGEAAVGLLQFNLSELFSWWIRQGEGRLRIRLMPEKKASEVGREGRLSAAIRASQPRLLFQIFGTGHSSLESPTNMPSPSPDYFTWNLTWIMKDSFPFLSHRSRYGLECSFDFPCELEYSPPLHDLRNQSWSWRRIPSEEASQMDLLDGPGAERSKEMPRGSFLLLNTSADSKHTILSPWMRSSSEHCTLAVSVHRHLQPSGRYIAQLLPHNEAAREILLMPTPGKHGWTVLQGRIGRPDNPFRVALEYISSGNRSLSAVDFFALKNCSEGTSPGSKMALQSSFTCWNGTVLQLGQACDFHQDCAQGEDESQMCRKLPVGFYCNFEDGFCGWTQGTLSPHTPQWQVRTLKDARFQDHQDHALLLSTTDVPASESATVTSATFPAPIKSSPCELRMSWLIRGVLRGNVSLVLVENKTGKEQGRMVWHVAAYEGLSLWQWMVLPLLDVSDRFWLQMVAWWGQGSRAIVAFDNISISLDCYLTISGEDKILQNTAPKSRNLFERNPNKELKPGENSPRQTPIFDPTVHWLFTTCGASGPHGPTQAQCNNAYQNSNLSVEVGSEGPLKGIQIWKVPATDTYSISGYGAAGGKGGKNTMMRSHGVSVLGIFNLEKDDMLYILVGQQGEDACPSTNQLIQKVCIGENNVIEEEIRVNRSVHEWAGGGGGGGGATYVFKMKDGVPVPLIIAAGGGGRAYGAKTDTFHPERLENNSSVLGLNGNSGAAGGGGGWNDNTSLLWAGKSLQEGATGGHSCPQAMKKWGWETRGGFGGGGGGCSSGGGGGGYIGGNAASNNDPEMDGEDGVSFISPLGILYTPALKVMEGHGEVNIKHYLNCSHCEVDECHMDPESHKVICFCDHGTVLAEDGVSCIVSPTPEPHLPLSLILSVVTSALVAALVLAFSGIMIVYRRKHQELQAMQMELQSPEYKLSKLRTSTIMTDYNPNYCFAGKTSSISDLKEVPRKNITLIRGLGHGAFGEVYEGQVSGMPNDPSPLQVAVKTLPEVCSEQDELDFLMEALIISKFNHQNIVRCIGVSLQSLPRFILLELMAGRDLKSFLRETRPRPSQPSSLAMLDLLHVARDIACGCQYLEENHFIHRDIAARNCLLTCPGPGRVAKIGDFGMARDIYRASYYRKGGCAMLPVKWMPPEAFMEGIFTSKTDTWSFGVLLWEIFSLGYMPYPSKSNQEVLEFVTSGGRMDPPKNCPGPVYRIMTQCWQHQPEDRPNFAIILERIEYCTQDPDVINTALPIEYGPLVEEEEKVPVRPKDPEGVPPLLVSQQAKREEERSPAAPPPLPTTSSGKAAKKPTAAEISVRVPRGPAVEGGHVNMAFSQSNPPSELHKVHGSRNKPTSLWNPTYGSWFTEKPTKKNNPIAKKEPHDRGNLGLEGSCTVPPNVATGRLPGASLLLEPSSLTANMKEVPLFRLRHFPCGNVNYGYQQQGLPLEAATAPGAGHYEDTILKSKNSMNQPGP
The target of the next assay is TRKA (G595R) (Homo sapiens (Human), UniProt P04629, G595R). Nature of the assay: Radio-tagged HotSpot kinase assay, TRKA (G595R).
Sequence of TRKA (G595R) (P04629 33-796 G595R): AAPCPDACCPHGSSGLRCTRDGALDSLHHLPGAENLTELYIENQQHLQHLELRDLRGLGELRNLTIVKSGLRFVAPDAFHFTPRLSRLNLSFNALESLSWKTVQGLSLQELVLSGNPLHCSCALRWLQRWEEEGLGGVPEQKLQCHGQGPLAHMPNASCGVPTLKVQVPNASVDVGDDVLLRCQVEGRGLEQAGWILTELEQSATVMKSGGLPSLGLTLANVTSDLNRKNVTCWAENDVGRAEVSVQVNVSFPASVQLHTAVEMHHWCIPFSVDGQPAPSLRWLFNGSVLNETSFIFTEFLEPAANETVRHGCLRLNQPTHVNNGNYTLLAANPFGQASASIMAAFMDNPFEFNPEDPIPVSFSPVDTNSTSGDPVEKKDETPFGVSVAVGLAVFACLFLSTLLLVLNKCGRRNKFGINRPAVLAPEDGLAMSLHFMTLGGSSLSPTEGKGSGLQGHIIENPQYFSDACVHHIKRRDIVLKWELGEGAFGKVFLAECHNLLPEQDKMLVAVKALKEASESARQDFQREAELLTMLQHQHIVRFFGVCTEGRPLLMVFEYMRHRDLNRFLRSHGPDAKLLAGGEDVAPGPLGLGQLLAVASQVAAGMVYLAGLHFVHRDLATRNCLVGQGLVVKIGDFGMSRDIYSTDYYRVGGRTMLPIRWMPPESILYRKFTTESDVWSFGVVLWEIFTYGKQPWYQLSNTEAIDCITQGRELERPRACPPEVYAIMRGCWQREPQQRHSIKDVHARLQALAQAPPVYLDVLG
For a further assay, the target named is TRKB (Homo sapiens (Human), UniProt Q16620). Nature of the assay: Radio-tagged HotSpot kinase assay, TRKB. Format: biochemical. Particulars: 33P-ATP, 120 min, room temperature.
Another assay deals with TRKC (Homo sapiens (Human), UniProt Q16288). Nature of the assay: Radio-tagged HotSpot kinase assay, TRKC. Type of assay: biochemical. Particulars: 33P-ATP, 120 min, room temperature.
Another assay addresses ROS1 (Homo sapiens (Human), UniProt P08922). Nature of the assay: Radio-tagged HotSpot kinase assay, ROS1.
A further assay has as its target ROS1 (G2032R) (Homo sapiens (Human), UniProt P08922, G2032R). The assay is described as follows: Radio-tagged HotSpot kinase assay, ROS1 (G2032R).
In the next assay the target is TRKA (Homo sapiens (Human), UniProt P04629). The assay is described as follows: Radio-tagged HotSpot kinase assay, TRKA.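 Also: kinase activity measured through incorporation of 33P from labelled ATP into substrate, 120 min at room temperature, relative to a DMSO-only blank control, reported as inhibition.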
Sequence of TRKA (P04629 33-796): as the sequence (P04629 33-796 G595R) above, with R563G counted along it
The subject of a further assay is Ba/F3-LMNA-NTRK1-G595R. Nature of the assay: Inhibition of cell proliferation (CellTiter-Glo), Ba/F3-LMNA-NTRK1-G595R. Type of assay: cell-based. Particulars: 72 hours. On the procedure: (§1) The experiment of inhibiting cell proliferation by compounds was carried out in Hefei Zhongkeprecedo Biomedical Technology Co., Ltd. The Ba/F3 engineered cell line stably transfected with different kinase genes was recovered with RPMI 1640 medium (Biological Industries, Israel)+10% fetal bovine serum (Biological Industries, Israel)+1% double antibody (Penicillin Streptomycin solution, Coring, USA) and cultivated two generations. The logarithmic growth phase cell suspension was taken, and 2000 cells/well were inoculated on 96-well white cell culture plate (Corning 3917, NY, USA) with a volume of 95 μL per well. 5 μL of 20×DMSO solution of the compound to be tested was added into the culture plate containing 95 μL of cell suspension. The blank control group was added with corresponding volume of DMSO, mixed well, and incubated in a 5% CO2 incubator at 37° C. for 72 hours. CellTiter-Glo was used to detect cell viability.

For a further assay, the system named is Ba/F3-LMNA-NTRK1. Nature of the assay: Inhibition of cell proliferation (CellTiter-Glo), Ba/F3-LMNA-NTRK1. Format: cell-based. Particulars: 72 hours. On the procedure:
as §1

A further assay has as its system Ba/F3-CD74-ROS1. Nature of the assay: Inhibition of cell proliferation (CellTiter-Glo), Ba/F3-CD74-ROS1. Type of assay: cell-based. The following applies: 72 hours. On the procedure:
as §1

For a further assay, the system named is Ba/F3-CD74-ROS1-G2032R. The assay is described as follows: Inhibition of cell proliferation (CellTiter-Glo), Ba/F3-CD74-ROS1-G2032R.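 Also: Ba/F3 cell line expressing the CD74-ROS1 fusion with G2032R mutation.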 Type of assay: cell-based. Particulars: 72 hours. On the procedure:
as §1

In another assay the test system is Ba/F3-TEL-ALK-G1202R. Nature of the assay: Inhibition of cell proliferation (CellTiter-Glo), Ba/F3-TEL-ALK-G1202R. Type of assay: cell-based. Particulars: 72 hours. On the procedure:
as §1

Setting [1] is: read-out: ROS1 (IC50/nM), 33P-ATP, 120 min, room temperature.
The mark [2] stands for this setting: read-out: ROS1 (G2032R) (IC50/nM), 33P-ATP, 120 min, room temperature.
[3] abbreviates: read-out: TRKA (IC50/nM), 33P-ATP, 120 min, room temperature.

Sequence of ROS1 (P08922 28-2347): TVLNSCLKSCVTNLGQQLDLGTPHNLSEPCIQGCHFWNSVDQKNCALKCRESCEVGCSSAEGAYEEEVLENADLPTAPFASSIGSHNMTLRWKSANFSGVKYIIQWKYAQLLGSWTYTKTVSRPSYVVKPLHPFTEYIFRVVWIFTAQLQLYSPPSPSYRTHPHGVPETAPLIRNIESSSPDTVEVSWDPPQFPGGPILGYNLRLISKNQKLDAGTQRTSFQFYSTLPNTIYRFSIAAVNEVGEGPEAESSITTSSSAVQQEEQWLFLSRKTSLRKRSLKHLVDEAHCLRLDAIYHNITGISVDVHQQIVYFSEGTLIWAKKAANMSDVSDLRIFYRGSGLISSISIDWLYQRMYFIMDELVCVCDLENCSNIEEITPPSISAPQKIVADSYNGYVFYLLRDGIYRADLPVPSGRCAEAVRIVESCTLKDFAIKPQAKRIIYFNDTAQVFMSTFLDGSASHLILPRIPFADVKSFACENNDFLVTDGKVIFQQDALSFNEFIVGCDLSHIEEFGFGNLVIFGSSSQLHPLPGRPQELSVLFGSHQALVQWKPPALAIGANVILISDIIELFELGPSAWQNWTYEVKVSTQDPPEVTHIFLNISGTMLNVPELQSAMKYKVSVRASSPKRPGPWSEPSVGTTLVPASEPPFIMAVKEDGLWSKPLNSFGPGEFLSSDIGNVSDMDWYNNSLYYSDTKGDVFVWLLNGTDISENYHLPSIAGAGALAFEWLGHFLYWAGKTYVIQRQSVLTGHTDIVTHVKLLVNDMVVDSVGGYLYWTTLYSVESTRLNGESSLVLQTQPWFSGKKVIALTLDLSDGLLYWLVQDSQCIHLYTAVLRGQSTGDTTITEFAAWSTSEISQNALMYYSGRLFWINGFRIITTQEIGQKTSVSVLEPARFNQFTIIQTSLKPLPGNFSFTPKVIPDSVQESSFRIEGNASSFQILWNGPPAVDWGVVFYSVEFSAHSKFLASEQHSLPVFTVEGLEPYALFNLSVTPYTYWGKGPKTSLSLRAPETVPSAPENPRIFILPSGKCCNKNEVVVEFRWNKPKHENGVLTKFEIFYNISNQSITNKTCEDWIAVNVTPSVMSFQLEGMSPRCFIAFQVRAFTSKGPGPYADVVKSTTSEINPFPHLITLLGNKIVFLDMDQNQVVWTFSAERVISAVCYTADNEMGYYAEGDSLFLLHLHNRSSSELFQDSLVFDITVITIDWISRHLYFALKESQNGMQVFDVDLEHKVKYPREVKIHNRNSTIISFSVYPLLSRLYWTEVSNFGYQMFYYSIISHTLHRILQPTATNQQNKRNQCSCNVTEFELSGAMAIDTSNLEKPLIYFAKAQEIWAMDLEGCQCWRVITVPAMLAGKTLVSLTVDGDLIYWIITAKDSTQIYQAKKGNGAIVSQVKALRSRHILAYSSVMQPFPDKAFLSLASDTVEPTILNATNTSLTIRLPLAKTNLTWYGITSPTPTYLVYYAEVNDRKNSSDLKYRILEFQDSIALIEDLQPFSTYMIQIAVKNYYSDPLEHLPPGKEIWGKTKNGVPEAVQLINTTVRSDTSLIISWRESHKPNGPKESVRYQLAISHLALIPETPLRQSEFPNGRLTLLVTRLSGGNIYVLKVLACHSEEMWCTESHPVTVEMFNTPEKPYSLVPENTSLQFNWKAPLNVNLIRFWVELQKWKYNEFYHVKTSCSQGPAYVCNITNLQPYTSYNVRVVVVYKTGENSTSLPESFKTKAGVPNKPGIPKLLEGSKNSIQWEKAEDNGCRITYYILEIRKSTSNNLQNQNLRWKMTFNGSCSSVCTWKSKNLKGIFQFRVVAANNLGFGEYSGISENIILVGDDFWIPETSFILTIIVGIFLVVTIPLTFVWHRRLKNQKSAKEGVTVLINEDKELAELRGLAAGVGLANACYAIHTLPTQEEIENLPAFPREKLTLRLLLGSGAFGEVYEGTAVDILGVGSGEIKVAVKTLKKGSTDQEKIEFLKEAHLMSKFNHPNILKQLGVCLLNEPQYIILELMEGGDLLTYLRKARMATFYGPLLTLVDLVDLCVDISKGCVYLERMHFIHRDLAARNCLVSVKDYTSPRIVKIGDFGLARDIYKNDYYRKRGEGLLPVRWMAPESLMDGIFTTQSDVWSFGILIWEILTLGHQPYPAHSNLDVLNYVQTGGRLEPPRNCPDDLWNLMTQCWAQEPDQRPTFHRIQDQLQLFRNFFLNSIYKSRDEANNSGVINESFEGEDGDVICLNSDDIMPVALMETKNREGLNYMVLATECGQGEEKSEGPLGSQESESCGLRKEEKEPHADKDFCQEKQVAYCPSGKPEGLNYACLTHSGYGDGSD
Sequence of ALK (Q9UM73 19-1620): as the sequence (Q9UM73 19-1620 G1202R) above, with R1184G counted along it
Sequence of ROS1 (G2032R) (P08922 28-2347 G2032R): as the sequence (P08922 28-2347) above, with G2005R counted along it
Sequence of TRKA (G677C) (P04629 33-796 G667C limits assumed): as the sequence (P04629 33-796 G595R) above, with R563G, G635C counted along it

With `[2H]C([2H])([2H])Oc1ccc(F)cc1[C@@H](C)Nc1ccn2ncc(C3=NOC(C)(C)N3)c2n1` [Example 4], the IC50 against TRKA (G677C) lay in the range of 5 to 50 nM; against ALK, 0.5 to 5 nM; at ALK (G1202R), 5 to 50 nM; against TRKA (G595R) it was 5 to 50 nM.

As to `C[C@@H](Nc1ccn2ncc(C3=NOC(C)(C)N3)c2n1)c1cc(F)ccc1F` [Example 5], the IC50 against TRKB is less than 0.5 nM; against TRKA (G677C), 5 to 50 nM; at TRKC it was less than 0.5 nM; at ROS1 (setting [1]) it was less than 0.5 nM; against ALK, 0.5 to 5 nM; on ROS1 (G2032R) (setting [2]), less than 0.5 nM. Moreover, the IC50 lay in the range of 5 to 50 nM against ALK (G1202R), 5 to 50 nM against TRKA (G595R) and 0.5 to 5 nM at TRKA.

As to `C[C@@H](Oc1ccn2ncc(C3=NOC(C)(C)N3)c2n1)c1c(Cl)ccc(F)c1Cl` [Example 9], the IC50 at TRKB is 0.5 to 5 nM; on TRKA (G677C), 50 to 500 nM; at ALK it was 50 to 500 nM; in the assay on Ba/F3-LMNA-NTRK1-G595R, 890 nM; in the assay with Ba/F3-LMNA-NTRK1 it was 100 nM; in the assay with Ba/F3-CD74-ROS1 it was 26.2 nM. Also, the IC50 in the assay on Ba/F3-CD74-ROS1-G2032R was determined as 155 nM.

Turning to `COc1ccc(F)cc1[C@@H](C)Nc1ccn2ncc(C3=NOC(C)(C)N3)c2n1` [Example 10], the IC50 was less than 0.5 nM at TRKB; 87.5 nM in the assay on Ba/F3-TEL-ALK-G1202R; 0.5 to 5 nM on TRKA (G677C); less than 0.5 nM against TRKC; less than 0.5 nM at ROS1 (setting [1]); 5 to 50 nM against ALK. The IC50 was 2.2 nM in the assay with Ba/F3-LMNA-NTRK1-G595R; less than 0.5 nM at ROS1 (G2032R) (setting [2]); 1.3 nM in the assay on Ba/F3-LMNA-NTRK1; 2.8 nM in the assay on Ba/F3-CD74-ROS1; 0.5 to 5 nM against ALK (G1202R); 7.9 nM in the assay with Ba/F3-CD74-ROS1-G2032R. The IC50 against TRKA (G595R) is 0.5 to 5 nM; at TRKA (setting [3]), less than 0.5 nM.

Consider `C[C@@H](Nc1ccn2ncc(C3=NOC(C)(C)N3)c2n1)c1c(Cl)ccc(F)c1Cl` [Example 14], for which the IC50 on TRKB was in the range of 0.5 to 5 nM; against TRKA (G677C), 5 to 50 nM; against TRKC, 0.5 to 5 nM; on ROS1, 0.5 to 5 nM; at ROS1 (G2032R), 0.5 to 5 nM; against ALK (G1202R), 5 to 50 nM. The IC50 was 5 to 50 nM against TRKA (G595R) and 0.5 to 5 nM against TRKA.

Turning to `C[C@@H](Nc1ccn2ncc(C3=NOC(C)(C)N3)c2n1)c1cc(F)ccc1Br` [Example 23], the IC50 was 0.5 to 5 nM against TRKB; 5 to 50 nM on TRKA (G677C); 0.5 to 5 nM on TRKC; 0.5 to 5 nM at ROS1; 0.5 to 5 nM against ROS1 (G2032R); 5 to 50 nM against ALK (G1202R). Further, the IC50 against TRKA (G595R) fell in the range of 5 to 50 nM; against TRKA, 0.5 to 5 nM.

`C[C@@H](Nc1ccn2ncc(C3=NOC(C)(C)N3)c2n1)c1ccccc1Cl` [Example 26]: the IC50 lay within 0.5 to 5 nM at TRKB; 0.5 to 5 nM against TRKC; 0.5 to 5 nM against ROS1; 5 to 50 nM against ALK; 0.5 to 5 nM against TRKA.

In the case of `C[C@@H](Nc1ccn2ncc(C3=NOC(C)(C)N3)c2n1)c1cc(F)cc(F)c1` [Example 27], the IC50 against TRKB was 0.5 to 5 nM; against TRKC, 0.5 to 5 nM; against ROS1, 0.5 to 5 nM; at ALK, 5 to 50 nM; on TRKA it was 0.5 to 5 nM.

Take `COc1ncc(F)cc1[C@@H](C)Nc1ccn2ncc(C3=NOC(C)(C)N3)c2n1` [Example 28]: the IC50 against TRKB is less than 0.5 nM; against TRKA (G677C) it was 5 to 50 nM; at TRKC it was less than 0.5 nM; on ROS1 (setting [1]), less than 0.5 nM; against ALK, 5 to 50 nM; at ROS1 (G2032R) (setting [2]), less than 0.5 nM. The IC50 at ALK (G1202R) is 0.5 to 5 nM; on TRKA (G595R), 0.5 to 5 nM; at TRKA (setting [3]), less than 0.5 nM.

Regarding `Cc1ccc(F)cc1[C@@H](C)Nc1ccn2ncc(C3=NOC(C)(C)N3)c2n1` [Example 42], the IC50 was in the range of 0.5 to 5 nM at TRKB; 0.5 to 5 nM at TRKC; 0.5 to 5 nM at ROS1; 5 to 50 nM on ALK; 0.5 to 5 nM on TRKA.

With `COc1ccc(F)cc1[C@@H](C)Nc1ccn2ncc(C3=NOC4(CCCC4)N3)c2n1` [Example 44], the IC50 was 0.5 to 5 nM against TRKA (G677C); 13.9 nM with Ba/F3-LMNA-NTRK1-G595R; 14.2 nM in the assay on Ba/F3-LMNA-NTRK1; 6.9 nM in the assay on Ba/F3-CD74-ROS1; 59.2 nM with Ba/F3-CD74-ROS1-G2032R.

Regarding `CCOc1ccc(F)cc1[C@@H](C)Nc1ccn2ncc(C3=NOC(C)(C)N3)c2n1` [Example 50], the IC50 against TRKB is less than 0.5 nM; on TRKA (G677C), 0.5 to 5 nM; against TRKC, less than 0.5 nM; on ROS1 (setting [1]) it was less than 0.5 nM; at ALK, 5 to 50 nM; at ROS1 (G2032R) (setting [2]), less than 0.5 nM. In addition, the IC50 against ALK (G1202R), on TRKA (G595R) and at TRKA was 0.5 to 5 nM throughout.

`CC(C)Oc1ccc(F)cc1[C@@H](C)Nc1ccn2ncc(C3=NOC(C)(C)N3)c2n1` [Example 51]: the IC50 on TRKB is less than 0.5 nM; at TRKA (G677C), 5 to 50 nM; on TRKC, less than 0.5 nM; at ROS1 (setting [1]), less than 0.5 nM; against ALK, 5 to 50 nM; at ROS1 (G2032R) (setting [2]), less than 0.5 nM. In addition, the IC50 against ALK (G1202R) is 0.5 to 5 nM; against TRKA (G595R), 5 to 50 nM; at TRKA, 0.5 to 5 nM.

In the case of `CCc1ccc(F)cc1[C@@H](C)Nc1ccn2ncc(C3=NOC(C)(C)N3)c2n1` [Example 52], the IC50 against TRKB is 0.5 to 5 nM; against TRKA (G677C), 50 to 500 nM; on TRKC, less than 0.5 nM; on ROS1 (setting [1]), less than 0.5 nM; against ALK, 50 to 500 nM; against ROS1 (G2032R) it was 0.5 to 5 nM. Also, the IC50 was 5 to 50 nM on ALK (G1202R), 5 to 50 nM against TRKA (G595R) and 0.5 to 5 nM at TRKA.
